Literature values in publication PMC6986806 (Nature chemical biology, 2020).

System: GluN1/GluN2D

COc1ccc(OCC2c3cc(OC)c(OC)cc3CCN2C(=O)c2cccc(Cl)c2)cc1 (stereo not shown) [CIQ]
effect on GluN1/GluN2D unitary current: no effect
